Assay results from patent publication US20120035187A1 (priority 2009, published 2012).

Assays:
PC12-HS cells [1] = assay: Evaluation A: neurocyte (cell)-growth-promoting action, ALAMAR BLUE; type: cell-based, rat
Experimental: Then, the effects of test samples were judged as follows:
The relative value of 140 to 199: Equivalent effect to that of NK-4, symbol (∘); The relative value of 200 or higher: Stronger effect than that of NK-4, symbol ([…]). • The results are in Table 6.
The relative fluorescent intensity of each well was determined by using the fluorescent intensity of each well with cells, which had been cultured by admixing with D-MEM medium containing 10% by volume of FBS without any of the compounds, and the intensity of the resulting culture was regarded as 100%. The results are expressed as cell survival percentages (%) in Table 9. […]
The test was conducted twice for each test sample in a triplicate manner and the data were averaged.
Seven compounds as in Table 17, NK-234, NK-26, NK-9815, NK-9694, NK-28 and NK-147 as well as NK-4, were each dissolved in DMSO to give a concentration of 5 mg/ml. […] The test was conducted twice for each test sample in a triplicate manner and the data were averaged.

PC12-HS cells [2] = assay: Evaluation B: neurite-outgrowth action in presence of NGF; type: cell-based, rat; details: for Percentage (%) of cells with neurite outgrowth: 50 μl/well of 2 μg/ml test solution + NGF final 5 ng/ml; for Percentage (%) of cells with neurite outgrowth / Evaluation B: Neurite-outgrowth action: 3 days; for Evaluation B: Neurite-outgrowth action: 50 μl of 400 ng/ml test sample solution per well + NGF final 5 ng/ml
[3] = 100 μl/well of 100 ng/ml test solution, 3 days, control = 100

| SMILES | Evaluation B: Neurite-outgrowth action (PC12-HS cells [2]) | further results |
| --- | --- | --- |
| CCCCCCCCCCN1C(C)=CS\C1=C/C=C(\C=C\c1scc(C)[n+]1CCCCCCCCCC)c1scc(C)[n+]1CCCCCCCCCC.[I-].[I-] [NK-2844] | – | Action of enhancing cell growth (%) (PC12-HS cells [1]; [3]): 399%; Percentage (%) of cells with neurite outgrowth (PC12-HS cells [2]): 54% |
| Cc1ccc2c(c1)S/C(=C\c1sc3cc(C)ccc3[n+]1C)N2C.[I-] [NK-594] | ∘ (The test sample with a neurite outgrowth rate of 30% or higher was judged to be equivalent or more (∘) compared with NK-4) | – |
| CCCCCCCCCCCCN1C(C)=CS\C1=C/C=C(/C=C/c1scc(C)[n+]1CCCCCCCCCCCC)c1scc(C)[n+]1CCCCCCCCCCCC.[I-].[I-] [NK-32] | – | Action of enhancing cell growth (%) (PC12-HS cells [1]; [3]): 199%; Percentage (%) of cells with neurite outgrowth (PC12-HS cells [2]): 16% |
| CCCC[n+]1c(C=Cc2ccc(N(C)C)cc2)sc2ccccc21.[I-] [NK-490] | ∘ (The test sample with a neurite outgrowth rate of 30% or higher was judged to be equivalent or more (∘) compared with NK-4) | – |
| CCCCN1C(C)=CS/C1=C\c1scc(C)[n+]1CCCC.[I-] [NK-399] | ∘ (The test sample with a neurite outgrowth rate of 30% or higher was judged to be equivalent or more (∘) compared with NK-4) | – |
| CCCCCCC[n+]1c(C)csc1/C=C/c1ccc(N(C)C)cc1.[Cl-] [NK-279] | ∘ (The test sample with a neurite outgrowth rate of 30% or higher was judged to be equivalent or more (∘) compared with NK-4) | – |
| CN1/C(=C/C=C/C=C/C=C/C2=[N+](C)c3ccccc3C2(C)C)C(C)(C)c2ccccc21.[I-] [NK-125] | ∘ (The test sample with a neurite outgrowth rate of 30% or higher was judged to be equivalent or more (∘) compared with NK-4) | – |
| CC(C)CC[n+]1ccc(/C=C/c2ccc(N(C)C)cc2)c2ccccc21.[I-] [NK-282] | ∘ (The test sample with a neurite outgrowth rate of 30% or higher was judged to be equivalent or more (∘) compared with NK-4) | – |
| CC[n+]1ccc(/C=C/C=C/c2ccc(N(C)C)cc2)c2ccccc21.[I-] [NK-526] | ∘ (The test sample with a neurite outgrowth rate of 30% or higher was judged to be equivalent or more (∘) compared with NK-4) | – |
| CCN1/C(=C/C=C/c2sc3ccc4ccccc4c3[n+]2CC)Sc2ccc3ccccc3c21.[I-] [NK-382] | ∘ (The test sample with a neurite outgrowth rate of 30% or higher was judged to be equivalent or more (∘) compared with NK-4) | – |
| CC1=CS\C(=C/C=C(\C=C\c2scc(C)[n+]2C)c2scc(C)[n+]2C)N1C.[I-].[I-] [NK-2] | – | Action of enhancing cell growth (%) (PC12-HS cells [1]; [3]): 126%; Percentage (%) of cells with neurite outgrowth (PC12-HS cells [2]): 4% |
| CCN1C(C)=CS/C1=C\C=C\c1scc(C)[n+]1CC [NK-67] | ∘ (The test sample with a neurite outgrowth rate of 30% or higher was judged to be equivalent or more (∘) compared with NK-4) | – |
| CCN1C(C)=CS\C1=C/C=C(\C=C\c1scc(C)[n+]1CC)c1scc(C)[n+]1CC.[I-].[I-] [NK-13] | – | Action of enhancing cell growth (%) (PC12-HS cells [1]; [3]): 125%; Action of enhancing cell growth (%) (PC12-HS cells [1]; compound concentration 25 ng/ml): 126 ± 12%; Action of enhancing cell growth (%) (PC12-HS cells [1]; compound concentration 50 ng/ml): 140 ± 7%; Action of enhancing cell growth (%) (PC12-HS cells [1]; compound concentration 100 ng/ml): 231 ± 84%; Action of enhancing cell growth (%) (PC12-HS cells [1]; compound concentration 200 ng/ml): 209 ± 24%; Percentage (%) of cells with neurite outgrowth (PC12-HS cells [2]): 5%; Action on neurite outgrowth (%) (PC12-HS cells [2]; compound concentration 80 ng/ml): 10< %; Action on neurite outgrowth (%) (PC12-HS cells [2]; compound concentration 400 ng/ml): 10< %; Action on neurite outgrowth (%) (PC12-HS cells [2]; compound concentration 2000 ng/ml): 10< %; Action on neurite outgrowth (%) (PC12-HS cells [2]; compound concentration 10000 ng/ml): 10< % |
| CCCCCCC[n+]1c(/C=C/c2ccc(N(C)C)cc2)ccc2ccccc21.[I-] [NK-231] | ∘ (The test sample with a neurite outgrowth rate of 30% or higher was judged to be equivalent or more (∘) compared with NK-4) | – |
| CCN1/C(=C/c2cc[n+](CC)c3ccccc23)C=Cc2ccccc21.[I-] [NK-276] | ∘ (The test sample with a neurite outgrowth rate of 30% or higher was judged to be equivalent or more (∘) compared with NK-4) | – |
| CCN1/C(=C/C2=CC(=C/C=C/C3=CC(=C/c4sc5ccccc5[n+]4CC)/CC(C)(C)C3)/CC(C)(C)C2)Sc2ccccc21.[O-][Cl+3]([O-])([O-])[O-] [NK-2545] | ∘ (The test sample with a neurite outgrowth rate of 30% or higher was judged to be equivalent or more (∘) compared with NK-4) | – |
| CCN1/C(=C/C=C/c2cc[n+](CC)c3ccccc23)Oc2ccccc21.[I-] [NK-741] | ∘ (The test sample with a neurite outgrowth rate of 30% or higher was judged to be equivalent or more (∘) compared with NK-4) | – |
| CCCN1C(C)=CS\C1=C/C=C(\C=C\c1scc(C)[n+]1CCC)c1scc(C)[n+]1CCC.[I-].[I-] [NK-237] | – | Action of enhancing cell growth (%) (PC12-HS cells [1]; [3]): 212%; Percentage (%) of cells with neurite outgrowth (PC12-HS cells [2]): 16% |
| CN1/C(=C/C2=[N+](C)c3ccccc3C2(C)C)Oc2ccccc21.[I-] [NK-1684] | ∘ (The test sample with a neurite outgrowth rate of 30% or higher was judged to be equivalent or more (∘) compared with NK-4) | – |

| SMILES | Evaluation B: Neurite-outgrowth action (PC12-HS cells [2]) | further results |
| --- | --- | --- |
| CCN1/C(=C/C=C/C=C/c2sc3ccccc3[n+]2CC)Sc2ccccc21.[I-] [NK-136] | ∘ (The test sample with a neurite outgrowth rate of 30% or higher was judged to be equivalent or more (∘) compared with NK-4) | – |
| CCCCCCCCCCCN1C(C)=CS\C1=C/C=C(/C=C/c1scc(C)[n+]1CCCCCCCCCCC)c1scc(C)[n+]1CCCCCCCCCCC.[I-].[I-] [NK-9640] | – | Action of enhancing cell growth (%) (PC12-HS cells [1]; [3]): 191%; Percentage (%) of cells with neurite outgrowth (PC12-HS cells [2]): 13% |
| CCCCN1C(C)=CS\C1=C/C=C(\C=C\c1scc(C)[n+]1CCCC)c1scc(C)[n+]1CCCC.[Cl-].[Cl-] [NK-56] | – | Percentage (%) of cells with neurite outgrowth (PC12-HS cells [2]): 28% |
| CCCCCN1C(C)=CS\C1=C/C=C(\C=C\c1scc(C)[n+]1CCCCC)c1scc(C)[n+]1CCCCC.[I-].[I-] [NK-2850] | – | Action of enhancing cell growth (%) (PC12-HS cells [1]; [3]): 553%; Percentage (%) of cells with neurite outgrowth (PC12-HS cells [2]): 56% |
| CCN1/C(=C/c2oc3ccccc3[n+]2CC)Oc2ccccc21.[I-] [NK-863] | ∘ (The test sample with a neurite outgrowth rate of 30% or higher was judged to be equivalent or more (∘) compared with NK-4) | – |
| CCN1/C(=C/c2sc3ccccc3[n+]2CC)Sc2ccccc21.[Br-] [NK-1560] | ∘ (The test sample with a neurite outgrowth rate of 30% or higher was judged to be equivalent or more (∘) compared with NK-4) | – |
| CC[n+]1c(/C=C/C=C/c2ccc(N(C)C)cc2)sc2ccccc21.[I-] [NK-375] | ∘ (The test sample with a neurite outgrowth rate of 30% or higher was judged to be equivalent or more (∘) compared with NK-4) | – |
| CCCCCN1/C(=C/C2=[N+](C)c3ccccc3C2(C)C)C(C)(C)c2ccccc21.[O-][Cl+3]([O-])([O-])[O-] [NK-3206] | ∘ (The test sample with a neurite outgrowth rate of 30% or higher was judged to be equivalent or more (∘) compared with NK-4) | – |
| CC[n+]1c(/C=C/c2ccc(N(C)C)cc2)[se]c2ccccc21.[I-] [NK-1055] | ∘ (The test sample with a neurite outgrowth rate of 30% or higher was judged to be equivalent or more (∘) compared with NK-4) | – |
| CN1/C(=C/c2oc3ccccc3[n+]2C)Oc2ccccc21.[I-] [NK-87] | ∘ (The test sample with a neurite outgrowth rate of 30% or higher was judged to be equivalent or more (∘) compared with NK-4) | – |
| CCN1/C(=C/c2cc[n+](CC)c3ccccc23)Sc2ccccc21.[I-] [NK-750] | ∘ (The test sample with a neurite outgrowth rate of 30% or higher was judged to be equivalent or more (∘) compared with NK-4) | – |
| CN1/C(=C/C=C/c2oc3ccccc3[n+]2C)Oc2ccccc21.[I-] [NK-86] | ∘ (The test sample with a neurite outgrowth rate of 30% or higher was judged to be equivalent or more (∘) compared with NK-4) | – |
| CCN1/C(=C/c2ccc3ccccc3[n+]2CC)C=Cc2ccccc21.[Br-] [NK-1046] | ∘ (The test sample with a neurite outgrowth rate of 30% or higher was judged to be equivalent or more (∘) compared with NK-4) | – |
| CCN1/C(=C/C=C/c2oc3ccccc3[n+]2CC)Oc2ccccc21.[I-] [NK-85] | ∘ (The test sample with a neurite outgrowth rate of 30% or higher was judged to be equivalent or more (∘) compared with NK-4) | – |
| CCN1/C(=C/c2oc3ccccc3[n+]2CC)Sc2ccccc21.[I-] [NK-1049] | ∘ (The test sample with a neurite outgrowth rate of 30% or higher was judged to be equivalent or more (∘) compared with NK-4) | – |
| CCCCCCCN1C(C)=CS/C1=C\c1scc(C)[n+]1CCCCCCC.[I-] [NK-266] | ∘ (The test sample with a neurite outgrowth rate of 30% or higher was judged to be equivalent or more (∘) compared with NK-4) | – |
| CC[n+]1ccc(/C=C/c2ccc3c(c2)OCO3)c2ccccc21.[I-] [NK-629] | ∘ (The test sample with a neurite outgrowth rate of 30% or higher was judged to be equivalent or more (∘) compared with NK-4) | – |
| CCN1/C(=C/C=C/C=C/c2sc3ccc4ccccc4c3[n+]2CC)Sc2ccc3ccccc3c21.[I-] [NK-2409] | ∘ (The test sample with a neurite outgrowth rate of 30% or higher was judged to be equivalent or more (∘) compared with NK-4) | – |
